Values joined by “and” are separate entries in the source; they are usually repeats but may differ in a detail not shown here. Equal values may be shown once.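 Protocol summary: plate cells (96-well), add compound at 5 concentrations, incubate 48 h, interpolate endpoints linearly. GI50 = concentration required for 50% inhibition of growth. TGI denotes the concentration required for complete inhibition of growth.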
Experiments:
Test in all cases: DTP human tumour cell line panel, 48 h
[1] = system: SNB-75 CNS
[2] = system: A498 renal
[3] = system: HOP-18 NSCLC
[4] = system: SF-268 CNS
[5] = system: SR leukemia
[6] = system: IGROV1 ovarian
[7] = system: DLD-1 colon
[8] = system: K-562 leukemia
[9] = system: RPMI-8226 leukemia
[10] = system: OVCAR-8 ovarian

Structure (SMILES)	TGI [1]	TGI [2]	TGI [3]	TGI [4]	TGI [5]	TGI [6]	TGI [7]	TGI [8]	TGI [9]	TGI [10]	GI50 [1]	GI50 [2]	GI50 [3]	GI50 [4]	GI50 [5]	GI50 [6]	GI50 [7]	GI50 [8]	GI50 [9]	GI50 [10]
CC(=O)OC1(C#N)CC2OC1C1N=NN(C(=O)OC(C)(C)C)C21 (stereo unspecified)	> 100 µM	> 100 µM	> 100 µM	> 100 µM	57.8 µM	> 31.6 µM	> 31.6 µM	> 100 µM	> 100 µM	> 100 µM										
Cc1ccc(-c2cc(=O)c3cc(C)c(C)c(C(=O)O)c3o2)cc1[N+](=O)[O-]	> 100 µM		> 100 µM	> 100 µM		> 100 µM	> 100 µM	> 100 µM	> 100 µM	> 100 µM										
COC(=O)c1ccc(/C=C/S(=O)(=O)c2ccccc2)cc1	> 100 µM	> 100 µM		> 100 µM		> 100 µM	> 100 µM	> 100 µM	> 100 µM	> 100 µM										
CC(C)Cc1ccc(C(C)/C=C2\CCC(CN3CCCCC3)C2=O)cc1 (stereo unspecified)	33.7 µM	28.2 µM	30.6 µM	8.29 µM	8.23 µM	9.05 µM	5.13 µM	9.19 µM	6.65 µM	12.8 µM										
CCCCCN(CCCCC)C(=O)[C@H](CCC(=O)OCc1ccccc1)NC(=O)c1cc2ccccc2[nH]1	> 100 µM	> 100 µM	> 100 µM	> 100 µM		> 100 µM	> 100 µM	> 100 µM	7.74 µM	> 100 µM										
CC(CCC(=O)O)c1ccc(Br)cc1 (stereo unspecified)	> 100 µM		> 100 µM	> 100 µM	> 100 µM	> 100 µM	> 100 µM	> 100 µM	> 100 µM	> 100 µM										
CCN(CC)CCC(=O)N1C/C(=C/c2ccccc2)C(=O)/C(=C\c2ccccc2)C1	12.5 µM	11 µM	9.19 µM	5.4 µM	> 100 µM	9.69 µM	2.82 µM	2.62 µM	0.568 µM	10.2 µM										
N.N.NCCCCCN.O=C([O-])CC(=O)[O-].O=C([O-])CC(=O)[O-].[Pt+4].[Pt+4]	> 100 µM	> 100 µM	> 100 µM	> 100 µM	> 100 µM	> 100 µM	> 100 µM	> 100 µM	> 100 µM	> 100 µM	> 100 µM	> 100 µM	> 100000 nM	71.4 µM	58.6 µM	> 100 µM	> 100 µM	> 100 µM	> 100 µM	> 100 µM
N/C(=N\N=C\c1ccc(O)c(O)c1)NO	> 100 µM	> 100 µM	> 100 µM	> 100 µM	> 100 µM	> 100 µM	> 100 µM	> 100 µM	> 100 µM	> 100 µM										
CC1(C)Oc2ccccc2[N+]([O-])=C1c1ccccc1	> 100 µM	> 100 µM		> 100 µM	> 100 µM	> 100 µM	> 100 µM	> 100 µM	> 100 µM	> 100 µM										
CCOc1ccc(N=Cc2ccc3ccccc3n2)cc1	> 86.3 µM	> 100 µM	> 100 µM	> 100 µM		> 100 µM	> 100 µM	> 100 µM	> 100 µM	> 100 µM										
Fc1ccc2c(c1)cc1ccc3cccc4ccc2c1c34	> 100 µM	> 100 µM	> 100 µM	> 100 µM	> 100 µM	> 100 µM	> 100 µM	> 100 µM		> 100 µM										
CCOC(=O)NC(=O)c1cn(C2OC(COC(=O)CCCCCCCCC(=O)OCC3OC(n4cc(C(=O)NC(=O)OCC)c(=O)[nH]c4=O)C4OC(C)(C)OC34)C3OC(C)(C)OC32)c(=O)[nH]c1=O (stereo unspecified)	> 100 µM	> 100 µM	> 100 µM	> 100 µM	> 100 µM	> 100 µM	> 100 µM	> 100 µM	> 100 µM	> 100 µM										
COc1ccc(/C=C2\CCc3ccccc3C2=O)cc1OC	76.9 µM	> 100 µM	> 100 µM	62.6 µM		> 100 µM	56.4 µM	> 100 µM	64.8 µM	> 100 µM										
Nc1nc(CC2(O)CCCCC2)cc(-c2ccccc2)n1	98.1 µM	> 73.3 µM	> 90 µM	> 100 µM	49.6 µM	> 100 µM	> 100 µM	> 100 µM	78.6 µM	> 84.7 µM										
O=C(COC(=O)c1cccc2c(=O)c3ccccc3[nH]c12)Nc1ccc(S(=O)(=O)Nc2ncccn2)cc1	92.7 µM	> 100 µM		> 100 µM	91 µM	> 100 µM	> 100 µM	90.7 µM	> 100 µM	> 100 µM										

Structure (SMILES)	TGI [1]	TGI [2]	TGI [3]	TGI [4]	TGI [5]	TGI [6]	TGI [7]	TGI [8]	TGI [9]	TGI [10]	GI50 [1]	GI50 [2]	GI50 [3]	GI50 [4]	GI50 [5]	GI50 [6]	GI50 [7]	GI50 [8]	GI50 [9]	GI50 [10]
CCC(C)(C)NS(=O)(=O)c1ccccc1	> 100 µM	> 100 µM				> 100 µM	> 100 µM	> 100 µM	> 100 µM	> 100 µM										
COc1cc2ccc3c4cc(OC)c(OC(C)C)cc4c[n+](C)c3c2cc1OC	> 100 µM		88.6 µM	> 100 µM	> 100 µM	> 100 µM	> 100 µM	> 100 µM	> 100 µM	> 100 µM										
CCCCCCC/C=C1\CCC(CN(C)C)C1=O (stereo unspecified)	33.1 µM	35.6 µM	31.4 µM	35.8 µM	9.17 µM	36.3 µM	20.9 µM	9.53 µM	5.26 µM	18 µM										
CSC1SCC2C(=O)N(C)C(C(C)C)C(=O)OCC(NC(=O)c3cnc4ccccc4n3)C(=O)NC(C)C(=O)N(C)C1C(=O)N(C)C(C(C)C)C(=O)OCC(NC(=O)c1cnc3ccccc3n1)C(=O)NC(C)C(=O)N2C (stereo unspecified)							1.08 µM and 5.93 µM					< 0.001 µM	0.00966 nM	< 0.001 µM		< 0.001 µM	1.84e-05 µM	< 0.001 µM	< 0.001 µM	< 0.001 µM
COc1cc(/C=C2\Cc3ccccc3C2=O)cc(OC)c1OC	> 100 µM		> 100 µM	> 100 µM			> 100 µM	> 100 µM	> 100 µM	> 100 µM										
C/C(=N\NS(=O)(=O)c1c(C)cc(C)cc1C)c1ccc[n+]([O-])n1	41.2 µM	86.6 µM	47.3 µM	53.7 µM	57.7 µM	99.2 µM	21 µM	30.2 µM	31.4 µM	79 µM										
CC(C)(C)C1CCC(=O)C(C(O)CC2CC(=O)N(c3ccccc3)C(=O)C2)C1 (stereo unspecified)	> 100 µM	> 100 µM	> 100 µM	> 100 µM	> 100 µM	> 100 µM	> 100 µM	> 100 µM	> 100 µM	> 100 µM										
CC(C)=CCC/C(C)=C/CC/C(C)=C/C1CCC(=O)C1(C)C (stereo unspecified)	81.9 µM	36.9 µM	63.1 µM	33.6 µM	40.8 µM	39.4 µM	32.6 µM	38 µM	42.4 µM	38.7 µM										
CC(=O)Oc1cc(Cl)c(OC(C)=O)c2c(OC(C)=O)c(C)c(O[Si](C)(C)C(C)(C)C)cc12		4.77 µM		26.2 µM	19.1 µM	12.5 µM	3.92 µM	18.2 µM	9.41 µM	7.56 µM										
COC(=O)C1=C(O)c2cc3c(cc2[C@H](c2cc(OC)c(OC)c(OC)c2)C1)OCO3	> 100 µM	61.7 µM	> 100 µM	> 100 µM	> 100 µM	89.4 µM	> 100 µM	> 100 µM	> 100 µM	> 100 µM										
COc1c(Cl)[c]([Hg][O]C(C)=O)c(NCC(C)=O)c(OC)[c]1[Hg][O]C(C)=O	32.5 µM	71 µM		30.8 µM		31.6 µM	26.8 µM	> 100 µM	38.8 µM	32.4 µM	13.9 µM	26.7 µM		11.4 µM		15.6 µM	12.2 µM	11.8 µM	15 µM	13.6 µM
[N-]=[N+]=NC1C2CC3CC(C2)CC1C3 (stereo unspecified)	> 100 µM	> 100 µM	> 100 µM		> 100 µM	> 100 µM		> 100 µM	> 100 µM	> 100 µM										
Cn1cc2ccccc2c1-c1nc(F)nc(Nc2ccc(N)cc2)n1	42.9 µM	21.6 µM		56.3 µM	72.4 µM	28.5 µM	34.9 µM	> 100 µM	76.5 µM	46.7 µM										
OCCCCCNc1ccnc2cc(Cl)ccc12	> 100 µM	> 100 µM	> 100 µM	> 100 µM	40.8 µM	> 100 µM	> 100 µM	64.7 µM	> 100 µM	> 100 µM										
Cc1nc(-n2nc(-c3ccccc3)cc2-c2ccccc2)sc1C(=O)/C=C/c1ccc(Cl)cc1	> 100 µM	83.3 µM	29.6 µM	> 100 µM		> 100 µM	26.8 µM		26.7 µM	> 100 µM										
CCN(CC)c1ccc(/C=N/NC(=O)c2ccccc2Nc2ccnc(C(F)(F)F)c2)c(O)c1	> 100 µM	> 32.9 µM		> 100 µM	0.728 µM	71.4 µM		> 100 µM	0.601 µM	> 100 µM	0.41 µM	0.354 µM		0.0942 µM	0.0721 µM	0.0747 µM		0.384 µM	0.0417 µM	0.22 µM

Source: PubChem BioAssay (NCI)
